Reference: patent publication US20090325923A1, “NEW METHOD FOR THE TREATMENT OF INFLAMMATORY DISEASES” (TOPOTARGET SWITZERLAND SA, priority 2006, published 2009)

Columns and labels:
[1] = tested on: human monocyte-derived dendritic cells; test: LPS-stimulated cytokine secretion by ELISA in dendritic cells; type: cell-based
Procedure: (§1) Human monocytic cell line THP-1, human peripheral blood mononuclear cells (PBMC), human monocyte-derived dendritic cells, or mouse peritoneal macrophages were isolated and cultured overnight with increasing doses of FK866, and then stimulated with LPS for 6 h. The culture supernatants were tested for TNF and IL-6 content by ELISA
Human dendritic cells (mean and SD from 5 different donors) were incubated with 20 nM FK866 before stimulation with LPS or LPS+IFNγ. Pro-inflammatory cytokine levels in the supernatant were measured by ELISA after 16 h of culture.
as §1, with “This example describes the inhibition of pro-inflammatory cytokines production by the competitive small molecular weight compound inhibitor of NMPRT, ((E)-N-[4-(1-benzoylpiperidin-4-yl)butyl]-3-(pyridin-3-yl)acrylamide, designated FK866). Human” for “Human”, “ELISA.” for “ELISA”
This example describes the inhibition of other pro-inflammatory cytokine production, in addition to TNFα, IL-1β and IL-6, by FK866. Human dendritic cells from 5 different donors were cultured with FK866 before stimulation with LPS or LPS+IFNγ. The culture supernatants were tested for TNFα, IL-12 (p40 and p70), and IL-23 content by ELISA.

RAW264.7 cell line = test: TNFα mRNA levels by RT-PCR in RAW264.7 cells; type: cell-based, mouse; details: RAW 264.7, LPS in the presence of FK866, RT-PCR
Procedure: The murine RAW264.7 cell line was stimulated with LPS in the presence of FK866. TNF protein concentrations were determined by ELISA (above panel) while mRNA levels were determined by RT-PCR (below panel).
This example illustrates that FK866 inhibits TNFα secretion at a posttranscriptional level. The murine RAW 264.7 cell line was incubated in the presence of graded doses of FK866, stimulated with microbial products, and levels of TNFα released in the supernatant evaluated by ELISA.

[2] = tested on: collagen-induced arthritis; test: Collagen-induced arthritis (CIA) mouse model; type: in vivo
TNFα = test: Serum TNFα after LPS challenge (endotoxemia); type: in vivo, mouse; details: 10 mg/kg ip 7 h before ip LPS, bled 90 min later, vs placebo
Procedure: (§2) Mice were treated with thioglycollate to elicit PEC, and then received 10 mg/kg FK866 or placebo by ip injection 7 h before ip challenge with LPS. Mean serum TNFα at 90 min+sem of 3 mice per group is shown. PEC were obtained by lavage and intracellular NAD was determined. Data are mean±sem of 3 mice per group.
(§3) This example illustrates that NAMPT inhibition reduces circulating TNFα during endotoxemia and correlates with diminished intracellular NAD in inflammatory cells. Naïve mice were treated ip with thioglycollate to elicit inflammatory cells, and then were treated ip with placebo or 10 mg/kg FK866 7 h before an intraperitoneal injection of LPS. Mice were bled 90 min later for evaluation of serum TNFα levels.

[3] = tested on: Human monocytic cell line THP-1; test: LPS-stimulated cytokine secretion by ELISA in THP-1 cells; type: cell-based; details: THP-1, overnight increasing doses of FK866, LPS 6 h
Procedure: (§4) Human monocytic cell line THP-1 was cultured overnight in the presence of graded doses of nicotinic acid (NA), a precursor of NAD, and then stimulated with lipopolysaccharide (LPS) from gram-negative bacteria for 2 h. The cell supernatant was tested for tumor necrosis factor (TNF) content by ELISA and the intracellular pool of NAD was measured by an enzymatic assay.
as §1
THP-1 cells were incubated in the presence of 10 nM FK866 and graded doses of NMN. Cells were further stimulated with LPS and intracellular NAD levels and TNFα secretion were determined using standard assays.
as §4, with “This example illustrates the direct relationship between NAD levels in cells and pro-inflammatory cytokine secretion. Human” for “Human”, “of” for “of graded doses of”, “acid,” for “acid (NA),”
as §1, with “This example describes the inhibition of pro-inflammatory cytokines production by the competitive small molecular weight compound inhibitor of NMPRT, ((E)-N-[4-(1-benzoylpiperidin-4-yl)butyl]-3-(pyridin-3-yl)acrylamide, designated FK866). Human” for “Human”, “ELISA.” for “ELISA”
This example illustrates that NAMPT is the only molecular target of FK866. […]

[4] = tested on: Peritoneal exudates cells (PEC); test: Intracellular NAD in thioglycollate-elicited peritoneal exudate cells in vivo; set-up: species or system mouse
Procedure: Mice were treated with thioglycollate to elicit PEC, and then received 10 mg/kg FK866 by ip injection. PEC were obtained by lavage after different time points and intracellular NAD was determined. Data are mean±sem of 3 mice per group.
as §2
This example illustrates that FK866 reduces intracellular NAD level in inflammatory cells in vivo. Naïve mice were treated ip with thioglycollate to elicit inflammatory cells, and then FK866 was administered ip at 10 mg/kg. Peritoneal exudates cells (PEC) were obtained by lavage at different time points after treatment, and intracellular NAD levels were determined using an enzymatic assay.
as §3

[5] = tested on: human monocyte-derived dendritic cells; test: Annexin-V and propidium iodide survival assay in dendritic cells; type: cell-based; details: overnight increasing doses of FK866, LPS 6 h, vs untreated cells
Procedure: (B) Human monocyte-derived dendritic cells were isolated and cultured overnight with increasing doses of FK866, and then stimulated with LPS for 6 h. At the end of the culture, the survival of cells was measured by Annexin-V and propidium iodide staining.
In another experiment, human monocyte-derived dendritic cells were isolated and cultured overnight with increasing doses of FK866, and then stimulated with LPS for 6 h.

[6] = tested on: mouse peritoneal macrophages; test: LPS-stimulated TNF and IL-6 secretion by ELISA in peritoneal macrophages; type: cell-based; details: overnight increasing doses of FK866, LPS 6 h
Procedure: as §1
as §1, with “This example describes the inhibition of pro-inflammatory cytokines production by the competitive small molecular weight compound inhibitor of NMPRT, ((E)-N-[4-(1-benzoylpiperidin-4-yl)butyl]-3-(pyridin-3-yl)acrylamide, designated FK866). Human” for “Human”, “ELISA.” for “ELISA”

[7] = human dendritic cells from 5 donors, 20 nM FK866, LPS or LPS+IFNγ, 16 h
[8] = 10 mg/kg ip twice daily, 14 days, 0-3 histological score, vs placebo
[9] = CIA mice, end of the experiment

O=C(/C=C/c1cccnc1)NCCCCC1CCN(C(=O)c2ccccc2)CC1 [FK866, (E)-N-[4-(1-benzoylpiperidin-4-yl)butyl]-3-(pyridine-3-yl)-acrylamide]
IL-12 (p40 and p70) production [1, 7]: inhibited
IL-23 production [1, 7]: inhibited
TNFα production [1, 7]: inhibited
cytokine secretion (TNF and IL-6) ([1]; human monocyte-derived dendritic cells, overnight increasing doses of FK866, LPS 6 h): inhibited cytokine secretion in a dose-dependent fashion
TNFα mRNA levels (RAW264.7 cell line): did not significantly affect
inflammatory infiltrate in knee joint sections [2, 8]: statistically significant decrease
synovial hyperplasia in knee joint sections [2, 8]: statistically significant decrease
histology of knees and paws ([2]; 10 mg/kg ip twice daily, 14 days, vs placebo): much less inflammation
paw inflammation ([2]; 10 mg/kg ip twice daily, after 2 weeks of treatment, vs placebo): minimal signs of inflammation
effect on established CIA (dose-response) ([2]; 2, 5 or 10 mg/kg ip twice daily for 15 days): marked protective dose-dependent effect
IL-1β in paw tissue extracts [2, 9]: significantly reduced
IL-6 in paw tissue extracts [2, 9]: significantly reduced
IL-10 secretion in paw tissue extracts [2, 9]: remained unchanged
MCP-1 in paw tissue extracts [2, 9]: decreased
symptoms of arthritis (clinical score) ([2]; DBA/1 mice, 10 mg/kg ip twice daily for 15 days from clinical score ≧1): ameliorates the symptoms of arthritis
severity of arthritis in CIA mice ([2]; FK866 10 mg/kg ip twice daily or etanercept 15 mg/kg every three days, over 15 days): activity similar to etanercept
time until beneficial effect apparent after commencement of treatment ([2]; established CIA): ≤ 10 days
dose of maximal therapeutic effect on CIA ([2]; ip twice daily for 15 days): 10 mg/kg
Serum amyloid A protein (SAA) levels ([2]; sera of CIA mice at day 14, ELISA, vs placebo): decreased
circulating (serum) TNFα levels (TNFα): significant decrease
cytokine secretion (TNF and IL-6) [3]: inhibited cytokine secretion in a dose-dependent fashion
time of NAD nadir after injection ([4]; 10 mg/kg ip): 9 h
time of NAD recovery after injection ([4]; 10 mg/kg ip): around 14 h
intracellular NAD in PECs ([4]; 10 mg/kg ip 7 h before ip LPS, same mice, vs placebo): significant decrease
intracellular NAD in PEC (macrophages) in vivo ([4]; 10 mg/kg ip, lavage at different time points): significant time-dependent NAD depletion
survival of cells (Annexin-V and propidium iodide staining) [5]: no difference in survival
cytokine secretion (TNF and IL-6) [6]: inhibited cytokine secretion in a dose-dependent fashion
